Patent publication US9682965B2, “Fumagillol heterocyclic compounds and methods of making and using same” (Zafgen, Inc., priority 2015, dated 2017)

Key:
[1] = tested on: Male Sprague Dawley rats on high fat diet; experiment: 11 day rat DIO model (body weight, food intake, hematology, blood chemistries); type: in vivo; details: 264 h, DIO rat, once a day for 11 days, read-out: DIO Rat 11-day weight loss vs vehicle
In short: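 Male Sprague Dawley rats on 45% high-fat diet, acclimated 3 days to vehicle injections, then given compound (0.03-1.0 mg/kg) or vehicle (10% DMSO in water) sc once daily for 11 days. Body weight and food intake recorded daily. Blood taken about 2 h after the final dose for hematology and chemistry.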

recombinant human MetAP2 = recombinant human MetAP2 (Homo sapiens (Human), UniProt P50579); experiment: recombinant human MetAP2 enzyme inhibition assay; type: biochemical; details: recombinant human MetAP2, MAS peptide substrate, 25 minutes at 25° C
In short: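 Flag-tagged human recombinant MetAP2, preincubated with MnCl2, acting on MAS peptide substrate with coupled amino acid oxidase in 50 mM HEPES, 100 mM NaCl, pH 7.5. Incubation 25 min at 25 °C, then Amplex detection reagent added for fluorescence read-out. Duplicates, two runs, no-enzyme blanks.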

[2] = tested on: pregnant Sprague Dawley rats (embryo/fetal development); details: 6 mpk, subcutaneous, once every three days, Gestation Days 6-18, pregnant rats
Source text: Study Summary Rat Embryofetal:
The objective of this study design was to evaluate the potential effects of disclosed compounds on embryo/fetal development when given subcutaneously to pregnant rats once every three days during the critical period of organogenesis (Gestation Days 6-18). Female, Sprague Dawley rats, approximately 10 weeks of age, time bred, were ordered from a certified vendor and housed individually housed in stainless steel cages suspended over flush pans, on a 12-hour light-dark cycle (0700-1900) at 20-26° C. and 30-70% humidity. Rats were fed a standard rodent chow and provided water ad libitum. Rats were received and housed in the facility for a period of approximately 1 to 2 days.
Compounds were formulated using 100% DMSO mixed in Sterile Water for Injection, resulting in 2% DMSO solution in water. If necessary, due to limited solubility of a test article, a higher percentage of DMSO solution in water was used. Groups of 8 mated and presumed pregnant female rats were given subcutaneous doses of vehicle or test article, once every three days, beginning on Gestation Day 6 and ending on Gestation Day 18 (Days 6, 9, 12, 15, and 18), maintained two more days, and then euthanized and necropsied on Gestation Day 20. Body weights was recorded for all animals on Gestation Days 5 (purpose of randomization), 6, 9, 12, 15, 18, and 20 (scheduled euthanasia). Food consumption by weight was recorded on Gestation Days 6, 9, 12, 15, 18, and 20 (scheduled termination).
At necropsy, the dams were examined visually for external abnormalities including palpable masses. The abdominal, thoracic, and cranial cavities and their contents were examined for abnormalities and findings will be recorded. The reproductive tract were examined to record the number of ovarian corpora lutea, the number and location of uterine implantation sites noting the position of the cervix, and the number of early resorptions, late resorptions, live fetuses, and dead fetuses. For dead fetuses and late resorptions, crown-to-rump length and weight were recorded, if possible, and the fetus was discarded. For viable fetuses, weight, sex, and grossly visible external abnormalities were recorded.

[3] = tested on: Diet Induced Obese (DIO) C57BL/6 mice; experiment: 10 day DIO mouse model (body weight, food intake, hematology, blood chemistry); type: in vivo; details: 240 h, DIO mouse, once a day for 10 days, read-out: DIO Mouse 10-day weight loss vs vehicle
In short: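 DIO C57BL/6 mice on 60% kcal fat diet received compounds subcutaneously once daily for 10 days at 1.0, 0.5, 0.3, 0.1 or 0.03 mpk, in 10% DMSO in water, after 3-day vehicle acclimation. Body weight and food intake were recorded daily. Hematology and blood chemistry were taken on Day 11, 24 h post-final dose.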

recombinant human MetAP2, sequence (P50579 whole entry): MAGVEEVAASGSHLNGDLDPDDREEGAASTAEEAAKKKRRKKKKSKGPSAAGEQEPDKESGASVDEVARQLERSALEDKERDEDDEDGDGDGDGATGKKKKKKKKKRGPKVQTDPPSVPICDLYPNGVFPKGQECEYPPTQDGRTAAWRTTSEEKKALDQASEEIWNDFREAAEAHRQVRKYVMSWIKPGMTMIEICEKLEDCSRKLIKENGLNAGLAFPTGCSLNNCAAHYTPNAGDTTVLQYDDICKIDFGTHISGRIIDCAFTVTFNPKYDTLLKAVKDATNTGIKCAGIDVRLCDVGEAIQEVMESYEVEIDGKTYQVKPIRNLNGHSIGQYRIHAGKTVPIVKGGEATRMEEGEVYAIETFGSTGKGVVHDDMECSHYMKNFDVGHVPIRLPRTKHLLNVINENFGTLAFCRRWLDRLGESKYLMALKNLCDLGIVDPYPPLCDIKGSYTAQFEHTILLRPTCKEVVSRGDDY

CCN(CC)CCC1CN(C(=O)O[C@@H]2CC[C@]3(CO3)[C@@H]([C@@]3(C)O[C@@H]3CC=C(C)C)[C@@H]2OC)C1 [Example 103, (3R,4S,5S,6R)-5-methoxy-4-((2R,3R)-2-methyl-3-(3-methylbut-2-enyl)oxiran-2-yl)-1-oxaspiro[2.5]octan-6-yl 3-(2-(diethylamino)ethyl)azetidine-1-carboxylate]
inhibition in vivo at 0.5 mg/kg ([1]; 0.5 mpk sc): 2.57% | inhibition in vivo at 1 mg/kg ([1]; 1.0 mpk sc): 4.7% | IC50 (recombinant human MetAP2): < 50 nM | Rat Embryofetal @6 mpk [2]: Positive | inhibition in vivo at 0.1 mg/kg ([3]; 0.1 mpk sc): 5.1% | inhibition in vivo at 0.3 mg/kg ([3]; 0.3 mpk sc): 6.7% | inhibition in vivo at 1 mg/kg ([3]; 1.0 mpk sc): 15.8%
